# Results taken from US20170305882A1, “BENZYL SUBSTITUTED INDAZOLES AS BUB1 KINASE INHIBITORS” (Bayer Pharma Aktiengesellschaft, priority 2014, published 2017).
# How the values were obtained:
# [1] = biological target: T1, (recombinant) catalytic domain of human Bub1 (amino acids 704-1085) (Homo sapiens, UniProt O43683); test: Bub1 kinase assay (TR-FRET); type: biochemical; details: ATP 10 μM, 60 min reaction, pH 7.5; read-out: Biological Assay 1: Bub1 kinase assay median IC50
# T1 construct: catalytic domain of human Bub1 (amino acids 704-1085); 6xHis (N); made in house; host or cells: Hi5 insect cells
# [2] = tested on: HeLa human cervical tumor cells; test: Proliferation assay (HeLa cell line); type: cell-based; details: 96 h, 4 days incubation, crystal violet, read-out: Biological Assay 2: Proliferation assay (HeLa cell line) median IC50
# Description: Human tumour cells were originally obtained from the American Type Culture Collection (ATCC), the Deutsche Sammlung von Mikroorganismen und Zellkulturen (DSMZ, German Collection of Microorganisms and Cell Cultures), or Epo GmbH Berlin.
# [3] = biological target: T1, (recombinant) catalytic domain of human Bub1 (amino acids 704-1085); test: Equilibrium probe competition assay (TR-FRET kinase binding assay); details: read-out: IC50 (Assay 5, probe competition)
# Description: Equilibrium Probe Competition Assay:
# Bub1 binding affinity of compounds described in the present invention were quantified using a time-resolved fluorescence energy transfer (TR-FRET) kinase binding assay which measures displacement of the synthetic fluorescent probe 5-[({2-[2-({2-[1-(4-ethoxy-2,6-difluorobenzyl)-1H-indazol-3-yl]-4-(pyridin-4-ylamino)pyrimidin-5-yl}oxy)ethoxy]ethyl}carbamothioyl)amino]-2-(6-hydroxy-3-oxo-3H-xanthen-9-yl)benzoic acid (5-5-1) by the (recombinant) catalytic domain of human Bub1 (amino acids 704-1085). The enzyme was expressed in Hi5 insect cells with N-terminal 6×His/AviTag@ seqences, purified by affinity-(Ni-NTA) and size exclusion chromatography and site-specific biotinylated ex-vivo using a commercially available kit (Avidity).
# In a typical assay 11 different concentrations of each compound (0.1 nM, 0.33 nM, 1.1 nM, 3.8 nM, 13 nM, 44 nM, ˜0.15 μM, ˜0.51 μM, ˜1.7 μM, 5.9 μM and 20 μM) were tested in duplicate within the same microtiter plate. To this end, 100-fold concentrated compound solutions (in DMSO) were made by serial dilution (1:3.4) of freshly prepared 2 mM stocks in a clear low volume 384-well source microtiter plate (Greiner Bio-One, Frickenhausen, Germany), from which 50 nl of compounds were transferred into a black low volume test microtiter plate from the same supplier. Subsequently 2 μL of a solution containing biotinylated Bub1 (the final concentration of Bub1 was adjusted depending on the activity of the enzyme lot in order to be within the linear dynamic range of the assay: typically ˜200 pM were used) and 1 nM Streptavidin Terbium Cryptate (Cisbio, No. 610SATLB) in aqueous assay buffer [50 mM Tris/HCl pH 7.5, 200 mM potassium chloride (KCl), 1.0 mM dithiothreitol (DTT), 0.1 mM sodium ortho-vanadate, 1% (v/v) glycerol, 0.01% (w/v) bovine serum albumine (BSA), 0.005% (v/v) Triton X-100 (Sigma), were added to the compounds in the test plate and the mixture was incubated for 15 min at 22′C to allow pre-equilibration of the putative enzyme-inhibitor complexes before the start of the probe competition reaction, which was initiated by the addition of 3 μL 1.67-fold concentrated solution (in assay buffer) of 5-5-1 (final concentration: 1.5 nM). The resulting mixture (5 μL final volume) was Incubated at 220 during 0, 15, 30, 60, 120, 240 and 1440 min. After each time point the resonance energy transfer from the Streptavidin Tb cryptate to the 3′,6′-dihydroxy-3H-spiro[2-benzofuran-1,9′-xanthen]-3-one moiety of 5-5-1 was measured in order to quantify the amount of fluorescent probe displaced by the test compounds. To this end, the fluorescence emissions at 520 nm and 490 nm after excitation at 330-350 nm were measured in a Pherastar FS TR-FRET plate reader, (BMG Lab technologies, Offenburg, Germany) and the ratio of the emissions (520 nm/490 nm) was taken as Indicator for the amount of Bub1/5-5-1 equilibrium complexes. The data were normalized using two sets of control wells for high-(=enzyme reaction without inhibitor=0%=Minimum inhibition) and low-(=all assay components without enzyme=100%=Maximum inhibition) Bub1 activity. IC50 values were calculated by fitting the normalized inhibition data to a 4-parameter logistic equation (Minimum, Maximum, IC50, Hill; Y=Max+(Min−Max)/(1+(X/IC50)Hill)).
# [4] = tested on: pre-induced phospho-histone 2A (kinase activity of Bub1); test: H2A Abrogation-Assay (cell-based mechanistic assay, pre-treatment with Nocodazole); details: Nocodazole 16 h, then test compound 1 h; read-out: Biological Assay 4:2: H2A Abrogation IC50
# Description: Biological Assay 4.2: Abrogation-Assay
# This assay measures the inhibition of histone 2A phosphorylation, which was induced by pre-treatment of the cells with Nocodazole, by a Bub1 kinase inhibitor.
# [5] = tested on: HeLa human cervical tumor cells; test: Proliferation Assay (HeLa + Paclitaxel); type: cell-based; details: 3 nM paclitaxel, test substance 92 hours; read-out: Biological Assay 3: Proliferation Assay (HeLa + Paclitaxel) IC50
# Description: Proliferation Assay (HeLa+Paclitaxel):
# [6] = tested on: histone 2A phosphorylation (kinase activity of Bub1); test: H2A Formation-Assay (cell-based mechanistic assay, co-treatment with Nocodazole); details: 16 h, read-out: Biological Assay 4.1: H2A Formation IC50
structure (smiles),measurement,setting,value
"CCOc1cc(F)c(Cn2nc(-c3ncc(OCCCO)c(Nc4ccnc(NC(C)=O)c4)n3)c3ccccc32)c(F)c1 [Example 2-1-5, N-[4-({2-[1-(4-ethoxy-2,6-difluorobenzyl)-1H-indazol-3-yl]-5-(3-hydroxypropoxy)pyrimidin-4-yl}amino)pyridin-2-yl]acetamide]",IC50,[1],3.5 nM
same,IC50,[2],> 10000 nM
same,IC50,[3]; Time 15 min,0.59 nM
same,IC50,[3]; Time 30 min,0.49 nM
same,IC50,[3]; Time 60 min,0.32 nM
same,IC50,[3]; Time 90 min,0.26 nM
same,IC50,[3]; Time 120 min,0.2 nM
same,IC50,[3]; Time 240 min,0.16 nM
same,IC50,[3]; Time 1440 min,0.098 nM
same,IC50,[4],4.4 nM
same,IC50,[5],100 nM
same,IC50,[6],28 nM
"Cc1nccc(Nc2nc(-c3nn(Cc4c(F)cc(OCC5CC5)cc4F)c4ccccc34)ncc2OCCCO)n1 [Example 2-1-24, 3-[(2-{1-[4-(cyclopropylmethoxy)-2,6-difluorobenzyl]-1H-indazol-3-yl}-4-[(2-methylpyrimidin-4-yl)amino]pyrimidin-5-yl)oxy]propan-1-ol]",IC50,[1],23 nM
same,IC50,[2],9940 nM
same,IC50,[4],0.85 nM
same,IC50,[5],330 nM
same,IC50,[6],2.1 nM
"CCOc1cc(F)c(Cn2nc(-c3ncc(OCCCO)c(Nc4ccncc4Cl)n3)c3ccccc32)c(F)c1 [Example 2-1-6, 3-{[4-[(3-chloropyridin-4-yl)amino]-2-[1-(4-ethoxy-2,6-difluorobenzyl)-1H-indazol-3-yl]pyrimidin-5-yl}oxy)propan-1-ol]",IC50,[1],8.3 nM
same,IC50,[2],5900 nM
same,IC50,[3]; Time 15 min,1.7 nM
same,IC50,[3]; Time 30 min,0.87 nM
same,IC50,[3]; Time 60 min,0.85 nM
same,IC50,[3]; Time 90 min,1.2 nM
same,IC50,[3]; Time 120 min,0.38 nM
same,IC50,[3]; Time 240 min,0.31 nM
same,IC50,[3]; Time 1440 min,0.2 nM
same,IC50,[4],58 nM
same,IC50,[5],120 nM
same,IC50,[6],45 nM
"CCOc1cc(F)c(Cn2nc(-c3ncc(OCCCO)c(Nc4ccncc4C4CC4)n3)c3ccccc32)c(F)c1 [Example 2-1-3, 3-({4-[(3-cyclopropylpyridin-4-yl)amino]-2-[1-(4-ethoxy-2,6-difluorobenzyl)-1H-indazol-3-yl]pyrimidin-5-yl}oxy)propan-1-ol]",IC50,[1],11 nM
same,IC50,[2],3700 nM
same,IC50,[4],0.93 nM
same,IC50,[5],54 nM
same,IC50,[6],0.97 nM
"OCCCOc1cnc(-c2nn(Cc3c(F)cc(OCC(F)F)cc3F)c3ccccc23)nc1Nc1ccncc1Cl [Example 2-1-26, 3-[(4-[(3-chloropyridin-4-yl)amino]-2-{1-[4-(2,2-difluoroethoxy)-2,6-difluorobenzyl]-1H-indazol-3-yl}pyrimidin-5-yl)oxy]propan-1-ol]",IC50,[1],14 nM
same,IC50,[2],3790 nM
same,IC50,[4],38 nM
same,IC50,[5],64 nM
same,IC50,[6],14 nM
